# Results reported in ChEMBL document CHEMBL5543108, “Structure-based design and synthesis of BML284 derivatives: A novel class of colchicine-site noncovalent tubulin degradation agents” (Eur J Med Chem, 2024).
# Tests used:
# HeLa = experiment: Antiproliferative activity against human HeLa cells assessed as reduction in cell viability measured after 72 hrs; format: functional, cell-based
# K562 = experiment: Antiproliferative activity against human K562 cells assessed as reduction in cell viability measured after 72 hrs; format: functional, cell-based; settings: K562, 72 h
# MOLM-13 = experiment: Antiproliferative activity against human MOLM-13 cells assessed as reduction in cell viability measured after 72 hrs; format: functional, cell-based; settings: MOLM-13, 72 h
# HCT-116 = experiment: cells; settings: Homo sapiens, HCT-116, 72 h
# Description: Antiproliferative activity against human HCT-116 cells assessed as reduction in cell viability measured after 72 hrs
# MCF7 = experiment: cells; settings: Homo sapiens, MCF7, 72 h
# Description: Antiproliferative activity against human MCF7 cells assessed as reduction in cell viability measured after 72 hrs
Compound,IC50 (HeLa) [nM],IC50 (K562) [nM],IC50 (MOLM-13) [nM],IC50 (HCT-116) [nM],IC50 (MCF7) [nM]
Nc1nc(NCc2ccc3c(c2)OCO3)cc(-c2ccc(F)cc2)n1,> 2000,> 2000,> 2000,> 2000,> 2000
Nc1nc(NCc2ccc3c(c2)OCO3)cc(-c2ccc3c(c2)OCCO3)n1,520,170,240,710,650
COc1cccc(-c2cc(NCc3ccc(OC(F)(F)F)cc3)nc(N)n2)c1,430,260,280,260,590
CC(C)c1cccc(-c2cc(NCc3ccc4c(c3)OCO4)nc(N)n2)c1,> 2000,> 2000,> 2000,> 2000,> 2000
COc1ccc(CNc2cc(-c3cccc(OC)c3)nc(N)n2)cc1,120,130,120,520,620
Nc1nc(NCc2ccc3c(c2)OCO3)cc(-c2ccc(-c3ccccc3)cc2)n1,> 2000,> 2000,> 2000,> 2000,> 2000
Nc1nc(NCc2ccc3c(c2)OCO3)cc(-c2ccc(Oc3ccccc3)cc2)n1,> 2000,> 2000,> 2000,> 2000,> 2000
COc1cc(OC)cc(-c2cc(NCc3ccc4c(c3)OCO4)nc(N)n2)c1,180,60,60,330,350
Nc1nc(NCc2ccc3c(c2)OCO3)cc(-c2ccncc2)n1,> 2000,> 2000,> 2000,> 2000,> 2000
COc1cccc(-c2cc(N3CCc4cc(OC)c(OC)cc4C3)nc(N)n2)c1,230,330,170,210,220
N#Cc1cccc(-c2cc(NCc3ccc4c(c3)OCO4)nc(N)n2)c1,> 2000,> 2000,> 2000,> 2000,> 2000
Cn1cc2c(-c3cc(NCc4ccc5c(c4)OCO5)nc(N)n3)cccc2n1,> 2000,> 2000,> 2000,> 2000,> 2000
COc1cccc(-c2cc(NCc3cc(F)cc(F)c3)nc(N)n2)c1,610,350,220,450,620
COc1cc(-c2cc(NCc3ccc4c(c3)OCO4)nc(N)n2)cc(OC)c1OC,> 2000,> 2000,> 2000,> 2000,> 2000
Nc1nc(NCc2ccc3c(c2)OCO3)cc(-c2ccc3c(c2)OCO3)n1,180,70,110,390,1210
Nc1nc(NCc2ccc3c(c2)OCO3)cc(-c2ccc3c(c2)CCN3)n1,120,20,90,300,640
Nc1nc(NCc2ccc3c(c2)OCO3)cc(-c2ccc3ccccc3c2)n1,> 2000,1820,> 2000,1670,> 2000
COc1cccc(-c2cc(NCc3ccc(OC)c(OC)c3)nc(N)n2)c1,60,70,30,30,40
CCOc1ccc(-c2cc(NCc3ccc4c(c3)OCO4)nc(N)n2)cc1,> 2000,> 2000,> 2000,> 2000,> 2000

Compound,IC50 (HeLa) [nM],IC50 (K562) [nM],IC50 (MOLM-13) [nM],IC50 (HCT-116) [nM],IC50 (MCF7) [nM]
CC(=O)c1cccc(-c2cc(NCc3ccc4c(c3)OCO4)nc(N)n2)c1,> 2000,> 2000,> 2000,> 2000,> 2000
CC(=O)Nc1cccc(-c2cc(NCc3ccc4c(c3)OCO4)nc(N)n2)c1,> 2000,> 2000,> 2000,> 2000,> 2000
CC(C)(C)c1ccc(-c2cc(NCc3ccc4c(c3)OCO4)nc(N)n2)cc1,> 2000,> 2000,> 2000,> 2000,> 2000
Nc1nc(NCc2ccc3c(c2)OCO3)cc(-c2cccc3ccccc23)n1,500,250,220,770,960
COc1cccc(-c2cc(NCc3ccc4ccccc4c3)nc(N)n2)c1,290,320,130,130,290
CCCN(Cc1ccc2c(c1)OCO2)c1cc(-c2cccc(OC)c2)nc(N)n1,80,80,80,110,110
COc1ccc(-c2cc(NCc3ccc4c(c3)OCO4)nc(N)n2)cn1,200,120,190,820,1250
CC(C)c1ccc(-c2cc(NCc3ccc4c(c3)OCO4)nc(N)n2)cc1,> 2000,> 2000,> 2000,> 2000,> 2000
Nc1nc(NCc2ccc3c(c2)OCO3)cc(-c2cccc(OCc3ccccc3)c2)n1,> 2000,740,1010,1050,> 2000
COc1cccc(-c2cc(NCc3cccc(F)c3)nc(N)n2)c1,440,320,120,160,360
COc1ccc(-c2cc(NCc3ccc4c(c3)OCO4)nc(N)n2)cc1OC,> 2000,> 2000,> 2000,> 2000,> 2000
Cc1ccc(-c2cc(NCc3ccc4c(c3)OCO4)nc(N)n2)cc1,170,150,200,420,450
CC1(C)c2ccccc2-c2ccc(-c3cc(NCc4ccc5c(c4)OCO5)nc(N)n3)cc21,> 2000,> 2000,> 2000,> 2000,> 2000
COc1cccc(-c2cc(NCc3ccc(F)cc3F)nc(N)n2)c1,360,120,130,180,540
COc1cccc(-c2cc(NCc3cc(OC)c(OC)c(OC)c3)nc(N)n2)c1,330,280,110,160,280
C=CCN(Cc1ccc2c(c1)OCO2)c1cc(-c2cccc(OC)c2)nc(N)n1,110,60,60,97,60
CN(C)c1cccc(-c2cc(NCc3ccc4c(c3)OCO4)nc(N)n2)c1,280,300,360,550,530
Nc1nc(NCc2ccc3c(c2)OCO3)cc(-c2ccoc2)n1,910,280,560,1010,> 2000
COc1cccc(-c2cc(N(C)Cc3ccc4c(c3)OCO4)nc(N)n2)c1,20,40,30,35,120
